In ChEMBL document CHEMBL2203091, “Synthesis of novel МТ3 receptor ligands via an unusual Knoevenagel condensation” (Bioorg Med Chem Lett, 2012):

Key:
[1] = biological target: T1, Ribosyldihydronicotinamide dehydrogenase [quinone] (Homo sapiens) (UniProt P16083); assay: Inhibition of […] reductase 2 using MTT and NMeH as substrates
T1 sequence (whole entry): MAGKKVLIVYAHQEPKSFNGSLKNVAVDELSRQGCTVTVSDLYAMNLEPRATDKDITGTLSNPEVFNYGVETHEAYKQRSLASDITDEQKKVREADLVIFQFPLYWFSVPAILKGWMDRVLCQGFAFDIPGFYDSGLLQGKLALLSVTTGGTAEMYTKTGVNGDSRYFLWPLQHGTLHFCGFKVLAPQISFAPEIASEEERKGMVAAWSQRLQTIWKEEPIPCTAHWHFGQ

[2] = biological target: T2, Ribosyldihydronicotinamide dehydrogenase [quinone] (Homo sapiens, UniProt P16083); assay: Binding affinity to […] reductase 2 using MTT and NMeH as substrates
T2 sequence (P16083 whole entry): T1 sequence (whole entry)

[3] = biological target: T1, Ribosyldihydronicotinamide dehydrogenase [quinone] (Homo sapiens); details: 0.5 to 50 uM
Description: Inhibition of human recombinant quinine reductase 2 expressed in Escherichia coli BL21 (DE3) using menadione and NMeH as substrates at 0.5 to 50 uM

CC(=O)NCCC1C(=O)Nc2ccc(NC(C)=O)cc21 (stereo not given)
Imax [1]: 81.7% | IC50 [2]: 20.7 µM

CC(=O)Nc1ccc2c(c1)C(CC#N)C(=O)N2 (stereo not given)
Imax [1]: 100% | IC50 [2]: 14.1 µM

CC(=O)NCCC1(O)C(=O)Nc2ccc(NC(C)=O)cc21 (stereo not given)
Imax [1]: 36.3% | IC50 [2]: 0.2 µM

COc1ccc2[nH]cc(CCNC(C)=O)c2c1
Imax [1]: 85.2% | Imax [3]: 75%

CC(=O)Nc1ccc2c(c1)C(CC#N)C(=O)N2C (stereo not given)
Imax [1]: 99.2% | IC50 [2]: 7 µM
